The experiment addresses T1, hOX2R (Homo sapiens, UniProt O43614).
T1 construct: expressed in transfected cells; host or cells: CHO cells (G418 selection)
T1 sequence (O43614 1-444): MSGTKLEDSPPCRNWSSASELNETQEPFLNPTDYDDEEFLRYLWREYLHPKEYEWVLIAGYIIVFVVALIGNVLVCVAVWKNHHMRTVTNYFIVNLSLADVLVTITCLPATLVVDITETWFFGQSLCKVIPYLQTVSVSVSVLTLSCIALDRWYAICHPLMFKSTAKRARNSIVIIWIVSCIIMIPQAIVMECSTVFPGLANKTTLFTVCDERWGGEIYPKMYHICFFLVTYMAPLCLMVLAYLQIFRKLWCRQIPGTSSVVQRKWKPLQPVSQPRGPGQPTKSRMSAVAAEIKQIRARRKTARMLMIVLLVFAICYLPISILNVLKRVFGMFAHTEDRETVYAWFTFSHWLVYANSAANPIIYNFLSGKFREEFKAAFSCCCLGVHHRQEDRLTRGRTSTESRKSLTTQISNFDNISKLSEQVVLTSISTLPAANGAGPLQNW
Nature of the experiment: hOX2R IPone assay (orexin receptor agonism). In kind it is cell-based. The following applies: IPone readout; for hOX2R_Ipone max %act: maximal activation; for EC50: orexin receptor agonist, read-out: hOX2R_IPone EC50.

By EC50 is commonly meant the concentration at which the effect is half-maximal.

With `CCN1C(=O)NC(CC(C)C)CCCCCOc2nc(cn3ccnc23)-c2cc(ncc2OC)[C@H]1C` (single isomer, unassigned) [Example 53B], the hOX2R_Ipone max %act is 102.3% and the half-maximal effective concentration (EC50) worked out at 0.9 nM.
On the same counts, the results for `CCN1C(=O)NC(CC(C)(F)F)CCCCCOc2cn3ccnc3c(n2)-c2cc(ncc2OC)C1C` [Example 151, (3R,7R,E)-7-(2,2-difluoropropyl)-4-ethyl-25-methoxy-3-methyl-13-oxa-4,6-diaza-1(6,8)-imidazo[1,2-a]pyrazina-2(4,2)-pyridinacyclotridecaphan-5-one] are 108.6% and 0.51 nM.
As for `CCN1C(=O)N[C@@H](CCC(F)(F)F)CCOCCOc2nc(cn3ncnc23)-c2cc(ncc2OC)[C@H]1C` [Example 164, (3R,7S,E)-4-ethyl-25-methoxy-3-methyl-7-(3,3,3-trifluoropropyl)-10,13-dioxa-4,6-diaza-1(6,8)-[1,2,4]triazolo[1,5-a]pyrazina-2(4,2)-pyridinacyclotridecaphan-5-one], the hOX2R_Ipone max %act is 100.1% and the EC50 was 2.62 nM.
On the same counts, the results for `CCN1C(=O)N[C@@H](CCC(F)(F)F)CCCCCOc2nc(cn3ccnc23)-c2cc(cc(C)n2)[C@@H]1C` [Example 118A, (12S,16R)-13-ethyl-9,12-dimethyl-16-(3,3,3-trifluoropropyl)-12,13,16,17,18,19,20,21-octahydro-6,23-(azeno)-11,7-(metheno)imidazo[2,1-c][1,4,8,13,15]oxatetraazacyclohenicosin-14(15H)-one] are 99.08% and 183 nM.
For `CCN1C(=O)NC(COCC(F)F)CCCCCOc2nc(cn3ccnc23)-c2cc(ncc2OC)[C@H]1C` (mixture of isomers) [Example 190, (3R,E)-7-((2,2-difluoroethoxy)methyl)-4-ethyl-25-methoxy-3-methyl-13-oxa-4,6-diaza-1(6,8)-imidazo[1,2-a]pyrazina-2(4,2)-pyridinacyclotridecaphan-5-one] the same measures were 101.7% and 0.61 nM.
On the same counts, the results for `CCN1C(=O)N[C@@H](CCC(F)(F)F)CCCCCOc2nc(cn3c(C)cnc23)-c2cc(nc3ccoc23)C1C` (single isomer, unassigned) [Example 76B] are 100.4% and 3.4 nM.
For the compound `CCN1C(=O)NC(c2ccon2)CCCCCOc2nc(cn3ccnc23)-c2cccc(c2)[C@H]1C` (mixture of isomers) [Example 20, (12R)-13-ethyl-12-methyl-16-(1,2-oxazol-3-yl)-12,13,16,17,18,19, 20,21-octahydro-6,23-(azeno)-11,7-(metheno) imidazo[2,1-c][1,4,13,15]oxa-triazacyclohenicosin-14(15H)-one], the hOX2R_Ipone max %act is listed as 98.31% and the EC50 amounted to 9.5 nM.
For `CCN1C(=O)N[C@@H](CCC(F)(F)F)CCCCCOc2nc(cn3ccnc23)C2=NC=C(O2)C1C` (single isomer, unassigned) [Example 104B] the same measures were 101.1% and 64.1 nM.
For `CCN1C(=O)NC(CCC(F)(F)F)C(C)CCCOc2nc(cn3ccnc23)-c2cccc(c2)[C@H]1C` (single isomer, unassigned) [Example 42B] the same measures were 99.1% and 156 nM.
For `CCN1C(=O)N[C@@H](CC(F)(F)F)CCCCCOc2nc(nn3ccnc23)-c2cc(cnc2OC)[C@H]1C` [Example 99, (12R,16R)-13-ethyl-8-methoxy-12-methyl-16-(2,2,2-trifluoroethyl)-12,13,16,17,18,19,20, 21-octahydro-6,23-(azeno)-11,7-(metheno)imidazo[2,1-c][1,4,5,9,13,15] oxapentaazacycloheni-cosin-14(15H)-one], the hOX2R_Ipone max %act is recorded as 95.9% and the EC50 is 48.8 nM.
On the same counts, the results for `CCN1C(=O)N[C@@H](CCC(F)(F)F)CCCCCOc2nc(nn3ccnc23)-c2ccnc(c2)[C@H]1C` [Example 102, (12R,16R)-13-ethyl-12-methyl-16-(3,3,3-trifluoropropyl)-12,13,16,17,18,19,20, 21-octahydro-6,23-(azeno)-11,7-(metheno)imidazo[2,1-c][1,4,5,10,13,15] oxapentaazacycloheni-cosin-14(15H)-one] are 101.4% and 14.9 nM.
For `CCN1C(=O)N[C@@H](C(F)(F)F)CCCCOc2nc(cn3ccnc23)-c2cc(ncc2OC)C1C(F)(F)F` (single isomer, unassigned) [Example 39B] the same measures were 97.5% and 1060 nM.
On the same counts, the results for `CCN1C(=O)N[C@@H](CCC(F)(F)F)C/C=C/CCOc2nc(cc3cccnc23)-c2cc(ncc2OC)[C@H]1C` [Example 163, (3R,7S,E)-4-ethyl-25-methoxy-3-methyl-7-(3,3,3-trifluoropropyl)-13-oxa-4,6-diaza-1(6,8)-naphthyridina-2(4,2)-pyridinacyclotridecaphan-9-en-5-one] are 104.4% and 10.9 nM.
For the compound `CCN1C(=O)NC(CC2CCC2)CCCCCOc2nc(cn3ccnc23)-c2cc(ncc2OC)[C@H]1C` (single isomer, unassigned) [Example 61A], the hOX2R_Ipone max %act is given as 100.3% and the EC50 is 34.6 nM.
On the same counts, the results for `CCN1C(=O)NCCN(C)CCC(C)Oc2nc(cn3ccnc23)-c2cccc(c2)[C@H]1C` (mixture of isomers) [Example 16, (12R)-13-ethyl-12,18,21-trimethyl-12,13, 16,17,18,19,20,21-octahydro-6,23-(azeno)-11,7-(metheno) imidazo[2,1-c][1,4,13,15,18]oxa-tetraazacyclo-henicosin-14(15H)-one] are 77.7% and 3880 nM.
On the same counts, the results for `CCN1C(=O)N[C@@H](CCC(F)(F)F)CCCCCOc2nc(cc3ccnn23)-c2cc(ncc2OC)C1C` (single isomer, unassigned) [Example 88B] are 102.3% and 0.7 nM.
On the same counts, the results for `CCN1C(=O)N[C@@H](C)/C=C/CC2(CCOCC2)COc2nc(cn3ccnc23)-c2cc(ncc2OC)[C@H]1C` [Example 222, (3′R,7'S,7′E,8′E)-4′-ethyl-5′-methoxy-3′,7′-dimethyl-2,3,5,6-tetrahydrospiro[pyran-4,11′-13-oxa-4,6-diaza-1(6,8)-imidazo[1,2-a]pyrazina-2(4,2)-pyridinacyclotridecaphanen]-8′-en-5′-one] are 61.55% and 760 nM.
Consider “(3R,E)-4-ethyl-25-methoxy-3- methyl-7-(2,2,3,3- tetrafluoropropyl)-13-oxa-4,6- diaza-1(6,8)-imidazo[1,2-a] pyrazina-2(4,2)-pyridina- cyclotridecaphan-5-one [Example 187]”, for which the hOX2R_Ipone max %act was found to be 104.1% and the EC50 worked out at 0.62 nM.
On the same counts, the results for `CCN1C(=O)N[C@@H](CCC(F)(F)F)CCCCCOc2nc(cn3ccnc23)-c2cc(ccn2)[C@@H]1C` [Example 113A, (12S,16R)-13-ethyl-12-methyl-16-(3,3,3-trifluoropropyl)-12,13,16,17,18,19,20,21-octahydro-6,23-(azeno)-11,7-(metheno)imidazo[2,1-c][1,4,8,13,15]oxatetraazacyclohenicosin-14(15H)-one] are 98.1% and 105 nM.
For `CCN1C(=O)NC(CC2(C(F)F)CC2)CCCCCOc2nc(cn3ccnc23)-c2cc(ncc2OC)[C@H]1C` (single isomer, unassigned) [Example 70B] the same measures were 99.8% and 1.1 nM.
On the same counts, the results for `CCN1C(=O)NCCC2CCC(C2)Oc2nc(cn3ccnc23)-c2cccc(c2)[C@H]1C` (single isomer, unassigned) [Example 1A] are 92.5% and 1050 nM.
Take `CCN1C(=O)N[C@@H](CCC(F)(F)F)CCCCCOc2nc(nn3ccnc23)-c2cc(cnc2OC)[C@H]1C` [Example 47, (3R,7R,E)-4-ethyl-22-methoxy-3-methyl-7-(3,3,3-trifluoropropyl)-13-oxa-4,6-diaza-1(2,4)-imidazo[2,1-f][1,2,4]triazina-2(3,5)-pyridinacyclotridecaphan-5-one]: the hOX2R_Ipone max %act is listed as 100.5% and the EC50 worked out at 4.3 nM.
For `CCN1C(=O)N[C@@H](CCC(F)(F)F)CCCCOc2nc(cn3ncnc23)-c2cc(ncc2OC)C1C(F)(F)F` (single isomer, unassigned) [Example 34B] the same measures were 101.1% and 16.4 nM.
With `CCN1C(=O)NCC(C(F)(F)F)N(C)CCOc2nc(cn3ccnc23)-c2cccc(c2)[C@H]1C` (single isomer, unassigned) [Example 25A], the hOX2R_Ipone max %act stood at 96.6% and the EC50 was 250 nM.
For the compound `CCN1C(=O)N[C@@H](CCC(F)(F)F)CCCCCOc2nc(cn3ccnc23)-c2cc(ccn2)[C@H]1C` [Example 113B, (12R,16R)-13-ethyl-12-methyl-16-(3,3,3-trifluoropropyl)-12,13,16,17,18,19,20,21-octahydro-6,23-(azeno)-11,7-(metheno)imidazo[2,1-c][1,4,8,13,15]oxatetraazacyclohenicosin-14(15H)-one], the hOX2R_Ipone max %act is 100.9% and the EC50 turned out to be 3.3 nM.
On the same counts, the results for `CCN1C(=O)NC(CCOC)CCCCCOc2nc(cn3ccnc23)-c2cc(ncc2OC)[C@H]1C` (single isomer, unassigned) [Example 56B] are 101% and 1 nM.
